{"source": "patent US6355799B1", "about": "“Substituted benzene compounds, process for their preparation, and herbicidal and defoliant compositions containing them” (ISK Americas Incorporated, priority 1997, dated 2002)", "type_in_all_cases": "in vivo", "key": {"[1]": {"tested_on": "redroot pigweed (Amaranthus retroflexus, AMARE)", "test": "Pre-emerge test, greenhouse herbicide activity screening", "conditions": "pre-emerge, rated 14 days after application, 0 = no damage, 100 = complete death", "procedure,_shortened": "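Compounds in acetone were track-sprayed at 187 l/ha, 15–1000 g ai/ha, onto sandy loam pots. Pre-emerge seeds were sown one day before spraying, with surface watering afterwards. Post-emerge plants were at the 2–3 leaf stage and sprayed with 0.25% v/v non-ionic surfactant. Injury was rated 0–100 at 14 days.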"}, "[2]": {"tested_on": "field corn (Zea mays L., var. Dekalb 535, CORN)", "test": "Pre-emerge test, crop safety", "conditions": "pre-emerge, rated 14 days after application, 0 = no damage, 100 = complete death", "procedure,_shortened": "(§1)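 Fourteen days after spraying, crop and weed injury was graded visually from 0, no effect, to 100, every plant dead. Test substances were dissolved in acetone and applied at 15–1000 g ai/ha with a flat-fan nozzle. Application was either pre-emergence, one day after sowing, or post-emergence at the 2–3 leaf stage.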"}, "[3]": {"tested_on": "upland rice (Oryza sp., var. Tebonnet, RICE)", "test": "Pre-emerge test, crop safety", "conditions": "pre-emerge, rated 14 days after application, 0 = no damage, 100 = complete death", "procedure,_shortened": "as §1"}, "[4]": {"tested_on": "velvetleaf (Abutilon theophrasti, ABUTH)", "test": "Pre-emerge test, greenhouse herbicide activity screening", "conditions": "pre-emerge, rated 14 days after application, 0 = no damage, 100 = complete death", "procedure,_shortened": "(§2)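 Rating: 0–100 visual injury, 14 DAA. Application: acetone, 187 l/ha, 15–1000 g ai/ha, flat-fan track sprayer with nozzle 40–45 cm above soil or canopy. Post-emerge runs used 0.25% v/v surfactant on 2–3 leaf plants.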"}, "[5]": {"tested_on": "green foxtail (Setaria viridis, SETVI)", "test": "Pre-emerge test, greenhouse herbicide activity screening", "conditions": "pre-emerge, rated 14 days after application, 0 = no damage, 100 = complete death", "procedure,_shortened": "as §2"}, "[6]": {"tested_on": "barnyardgrass (Echinochloa crus-galli, ECHCG)", "test": "Pre-emerge test, greenhouse herbicide activity screening", "conditions": "pre-emerge, rated 14 days after application, 0 = no damage, 100 = complete death", "procedure,_shortened": "as §2"}, "[7]": {"tested_on": "lambsquarters (Chenopodium album, CHEAL)", "test": "Pre-emerge test, greenhouse herbicide activity screening", "conditions": "pre-emerge, rated 14 days after application, 0 = no damage, 100 = complete death", "procedure,_shortened": "as §2"}, "[8]": {"tested_on": "ivyleaf morningglory (Ipomoea hederacea, IPOHE)", "test": "Pre-emerge test, greenhouse herbicide activity screening", "conditions": "pre-emerge, rated 14 days after application, 0 = no damage, 100 = complete death", "procedure,_shortened": "as §2"}, "[9]": {"tested_on": "sicklepod (Cassia obtusifolia, CASOB)", "test": "Pre-emerge test, greenhouse herbicide activity screening", "conditions": "pre-emerge, rated 14 days after application, 0 = no damage, 100 = complete death", "procedure,_shortened": "as §2"}, "[10]": {"tested_on": "large crabgrass (Digitaria sanguinalis, DIGSA)", "test": "Pre-emerge test, greenhouse herbicide activity screening", "conditions": "pre-emerge, rated 14 days after application, 0 = no damage, 100 = complete death", "procedure,_shortened": "as §2"}, "[11]": {"tested_on": "johnsongrass (Sorghum halepense, SORHA)", "test": "Pre-emerge test, greenhouse herbicide activity screening", "conditions": "pre-emerge, rated 14 days after application, 0 = no damage, 100 = complete death", "procedure,_shortened": "as §2"}, "[12]": {"tested_on": "field corn (Zea mays L., var. Dekalb 535, CORN)", "test": "Post-emerge test, crop safety", "conditions": "phytotoxicity rating 0-100 (0 no damage, 100 complete death), 14 days after application", "procedure,_shortened": "(§3)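 Plants grown in 10 cm pots of sandy loam mix received acetone-dissolved compounds through a moving flat-fan nozzle. Doses ranged from 15 to 1000 g ai/ha. Pre-emerge pots were seeded one day earlier, post-emerge pots 8–21 days earlier. Fourteen days on, each pot was graded 0–100 for damage.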"}, "[13]": {"tested_on": "upland rice (Oryza sp., var. Tebonnet, RICE)", "test": "Post-emerge test, crop safety", "conditions": "phytotoxicity rating 0-100 (0 no damage, 100 complete death), 14 days after application", "procedure,_shortened": "as §3"}, "[14]": {"tested_on": "velvetleaf (Abutilon theophrasti, ABUTH)", "test": "Post-emerge test, greenhouse herbicide activity screening", "conditions": "phytotoxicity rating 0-100 (0 no damage, 100 complete death), 14 days after application", "procedure,_shortened": "(§4)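 Each test used a mechanized track sprayer delivering 187 l/ha of acetone solution at 15–1000 g ai/ha. Post-emerge foliage at 2–3 leaves was treated with added 0.25% v/v non-ionic surfactant and bottom-watered only. Injury was assessed on day 14, where 100 means total kill.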"}, "[15]": {"tested_on": "green foxtail (Setaria viridis, SETVI)", "test": "Post-emerge test, greenhouse herbicide activity screening", "conditions": "phytotoxicity rating 0-100 (0 no damage, 100 complete death), 14 days after application", "procedure,_shortened": "as §4"}, "[16]": {"tested_on": "common ragweed (Ambrosia artemisizfolia L., AMBEL)", "test": "Post-emerge test, greenhouse herbicide activity screening", "conditions": "phytotoxicity rating 0-100 (0 no damage, 100 complete death), 14 days after application", "procedure,_shortened": "as §4"}, "[17]": {"tested_on": "barnyardgrass (Echinochloa crus-galli, ECHCG)", "test": "Post-emerge test, greenhouse herbicide activity screening", "conditions": "phytotoxicity rating 0-100 (0 no damage, 100 complete death), 14 days after application", "procedure,_shortened": "as §4"}, "[18]": {"tested_on": "lambsquarters (Chenopodium album, CHEAL)", "test": "Post-emerge test, greenhouse herbicide activity screening", "conditions": "phytotoxicity rating 0-100 (0 no damage, 100 complete death), 14 days after application", "procedure,_shortened": "as §4"}, "[19]": {"tested_on": "ivyleaf morningglory (Ipomoea hederacea, IPOHE)", "test": "Post-emerge test, greenhouse herbicide activity screening", "conditions": "phytotoxicity rating 0-100 (0 no damage, 100 complete death), 14 days after application", "procedure,_shortened": "as §4"}, "[20]": {"tested_on": "sicklepod (Cassia obtusifolia, CASOB)", "test": "Post-emerge test, greenhouse herbicide activity screening", "conditions": "phytotoxicity rating 0-100 (0 no damage, 100 complete death), 14 days after application", "procedure,_shortened": "as §4"}, "[21]": {"tested_on": "redroot pigweed (Amaranthus retroflexus, AMARE)", "test": "Post-emerge test, greenhouse herbicide activity screening", "conditions": "phytotoxicity rating 0-100 (0 no damage, 100 complete death), 14 days after application", "procedure,_shortened": "as §4"}, "[22]": {"tested_on": "large crabgrass (Digitaria sanguinalis, DIGSA)", "test": "Post-emerge test, greenhouse herbicide activity screening", "conditions": "phytotoxicity rating 0-100 (0 no damage, 100 complete death), 14 days after application", "procedure,_shortened": "as §4"}, "[23]": {"tested_on": "johnsongrass (Sorghum halepense, SORHA)", "test": "Post-emerge test, greenhouse herbicide activity screening", "conditions": "phytotoxicity rating 0-100 (0 no damage, 100 complete death), 14 days after application", "procedure,_shortened": "as §4"}}}
{"compound": "CCOC(=O)C(C)Nc1c(OC)c(Cl)cc(F)c1-n1c(=O)cc(C(F)(F)F)n(C)c1=O", "note": "(stereo not shown) [Compound 1-55]", "values": [{"measurement": "Pre-emerge Herbicidal Activity AMARE (phytotoxicity rating, scale 0-100)", "setting": "[1]; 63 g ai/ha", "value": 70}, {"measurement": "Pre-emerge Herbicidal Activity AMARE (phytotoxicity rating, scale 0-100)", "setting": "[1]; 250 g ai/ha", "value": 70}, {"measurement": "Pre-emerge crop damage CORN (phytotoxicity rating, scale 0-100)", "setting": "[2]; 63 g ai/ha", "value": 10}, {"measurement": "Pre-emerge crop damage CORN (phytotoxicity rating, scale 0-100)", "setting": "[2]; 250 g ai/ha", "value": 10}, {"measurement": "Pre-emerge crop damage RICE (phytotoxicity rating, scale 0-100)", "setting": "[3]; 63 g ai/ha", "value": 0}, {"measurement": "Pre-emerge crop damage RICE (phytotoxicity rating, scale 0-100)", "setting": "[3]; 250 g ai/ha", "value": 0}, {"measurement": "Pre-emerge Herbicidal Activity ABUTH (phytotoxicity rating, scale 0-100)", "setting": "[4]; 63 g ai/ha", "value": 90}, {"measurement": "Pre-emerge Herbicidal Activity ABUTH (phytotoxicity rating, scale 0-100)", "setting": "[4]; 250 g ai/ha", "value": 90}, {"measurement": "Pre-emerge Herbicidal Activity SETVI (phytotoxicity rating, scale 0-100)", "setting": "[5]; 63 g ai/ha", "value": 0}, {"measurement": "Pre-emerge Herbicidal Activity SETVI (phytotoxicity rating, scale 0-100)", "setting": "[5]; 250 g ai/ha", "value": 0}, {"measurement": "Pre-emerge Herbicidal Activity ECHCG (phytotoxicity rating, scale 0-100)", "setting": "[6]; 63 g ai/ha", "value": 10}, {"measurement": "Pre-emerge Herbicidal Activity ECHCG (phytotoxicity rating, scale 0-100)", "setting": "[6]; 250 g ai/ha", "value": 10}, {"measurement": "Pre-emerge Herbicidal Activity CHEAL (phytotoxicity rating, scale 0-100)", "setting": "[7]; 63 g ai/ha", "value": 95}, {"measurement": "Pre-emerge Herbicidal Activity CHEAL (phytotoxicity rating, scale 0-100)", "setting": "[7]; 250 g ai/ha", "value": 95}, {"measurement": "Pre-emerge Herbicidal Activity IPOHE (phytotoxicity rating, scale 0-100)", "setting": "[8]; 63 g ai/ha", "value": 0}, {"measurement": "Pre-emerge Herbicidal Activity IPOHE (phytotoxicity rating, scale 0-100)", "setting": "[8]; 250 g ai/ha", "value": 0}, {"measurement": "Pre-emerge Herbicidal Activity CASOB (phytotoxicity rating, scale 0-100)", "setting": "[9]; 63 g ai/ha", "value": 0}, {"measurement": "Pre-emerge Herbicidal Activity CASOB (phytotoxicity rating, scale 0-100)", "setting": "[9]; 250 g ai/ha", "value": 0}, {"measurement": "Pre-emerge Herbicidal Activity DIGSA (phytotoxicity rating, scale 0-100)", "setting": "[10]; 63 g ai/ha", "value": 50}, {"measurement": "Pre-emerge Herbicidal Activity DIGSA (phytotoxicity rating, scale 0-100)", "setting": "[10]; 250 g ai/ha", "value": 50}, {"measurement": "Pre-emerge Herbicidal Activity SORHA (phytotoxicity rating, scale 0-100)", "setting": "[11]; 63 g ai/ha", "value": 20}, {"measurement": "Pre-emerge Herbicidal Activity SORHA (phytotoxicity rating, scale 0-100)", "setting": "[11]; 250 g ai/ha", "value": 20}, {"measurement": "Post-emerge Herbicidal Activity CORN (crop damage)", "setting": "[12]; 63 g ai/ha", "value": 0}, {"measurement": "Post-emerge Herbicidal Activity CORN (crop damage)", "setting": "[12]; 250 g ai/ha", "value": 10}, {"measurement": "Post-emerge Herbicidal Activity RICE (crop damage)", "setting": "[13]; 63 g ai/ha", "value": 0}, {"measurement": "Post-emerge Herbicidal Activity RICE (crop damage)", "setting": "[13]; 250 g ai/ha", "value": 0}, {"measurement": "Post-emerge Herbicidal Activity ABUTH", "setting": "[14]; 63 g ai/ha", "value": 80}, {"measurement": "Post-emerge Herbicidal Activity ABUTH", "setting": "[14]; 250 g ai/ha", "value": 90}, {"measurement": "Post-emerge Herbicidal Activity SETVI", "setting": "[15]; 63 g ai/ha", "value": 0}, {"measurement": "Post-emerge Herbicidal Activity SETVI", "setting": "[15]; 250 g ai/ha", "value": 40}, {"measurement": "Post-emerge Herbicidal Activity AMBEL", "setting": "[16]; 63 g ai/ha", "value": 70}, {"measurement": "Post-emerge Herbicidal Activity AMBEL", "setting": "[16]; 250 g ai/ha", "value": 50}, {"measurement": "Post-emerge Herbicidal Activity ECHCG", "setting": "[17]; 63 g ai/ha", "value": 0}, {"measurement": "Post-emerge Herbicidal Activity ECHCG", "setting": "[17]; 250 g ai/ha", "value": 0}, {"measurement": "Post-emerge Herbicidal Activity CHEAL", "setting": "[18]; 63 g ai/ha", "value": 0}, {"measurement": "Post-emerge Herbicidal Activity CHEAL", "setting": "[18]; 250 g ai/ha", "value": 20}, {"measurement": "Post-emerge Herbicidal Activity IPOHE", "setting": "[19]; 63 g ai/ha", "value": 30}, {"measurement": "Post-emerge Herbicidal Activity IPOHE", "setting": "[19]; 250 g ai/ha", "value": 95}, {"measurement": "Post-emerge Herbicidal Activity CASOB", "setting": "[20]; 63 g ai/ha", "value": 10}, {"measurement": "Post-emerge Herbicidal Activity CASOB", "setting": "[20]; 250 g ai/ha", "value": 20}, {"measurement": "Post-emerge Herbicidal Activity AMARE", "setting": "[21]; 63 g ai/ha", "value": 10}, {"measurement": "Post-emerge Herbicidal Activity AMARE", "setting": "[21]; 250 g ai/ha", "value": 10}, {"measurement": "Post-emerge Herbicidal Activity DIGSA", "setting": "[22]; 63 g ai/ha", "value": 0}, {"measurement": "Post-emerge Herbicidal Activity DIGSA", "setting": "[22]; 250 g ai/ha", "value": 30}, {"measurement": "Post-emerge Herbicidal Activity SORHA", "setting": "[23]; 63 g ai/ha", "value": 0}, {"measurement": "Post-emerge Herbicidal Activity SORHA", "setting": "[23]; 250 g ai/ha", "value": 0}]}
